Experimental data taken from ChEMBL document CHEMBL1136502, “Novel mechanism of inhibiting beta-lactamases by sulfonylation using beta-sultams” (Bioorg Med Chem Lett, 2003).

Key:
[1] = target: Beta-lactamase (Enterobacter cloacae, UniProt P05364); test: Inhibitor activity against Beta-lactamase, derived from the Gram negative bacteria Enterobacter cloacae at pH 7
[2] = pKa value was determined; assay type: physicochemical

Beta-lactamase, sequence (P05364 whole entry): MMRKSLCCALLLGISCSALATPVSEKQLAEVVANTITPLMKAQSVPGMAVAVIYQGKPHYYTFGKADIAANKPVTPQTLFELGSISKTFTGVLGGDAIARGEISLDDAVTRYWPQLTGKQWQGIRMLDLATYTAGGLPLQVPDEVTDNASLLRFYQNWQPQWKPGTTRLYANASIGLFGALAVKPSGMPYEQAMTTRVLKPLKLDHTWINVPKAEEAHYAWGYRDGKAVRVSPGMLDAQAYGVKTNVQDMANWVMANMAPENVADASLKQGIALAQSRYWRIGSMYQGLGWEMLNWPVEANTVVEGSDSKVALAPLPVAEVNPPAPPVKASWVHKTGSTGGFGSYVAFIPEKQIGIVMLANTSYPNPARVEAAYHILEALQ

kinact/Ki [1] [M⁻¹ s⁻¹]	pKa [2]	Compound
0.07	–	CC(C)C1CN(C(=O)c2ccccc2)S1(=O)=O (stereo not drawn)
163	6.3	O=C(c1ccccc1)N1CCS1(=O)=O
